This is an account of results in US11806351B2, “Use of coenzyme factor for activation of ATP production in cell” (TERA STONE Co., Ltd, priority 2018, dated 2023).

The subject of data set [1] is hippocampal neurons. In words: number of branches of hippocampal neuron dendrite, Specimens 5 to 11. The class given is cell-based, ICR mouse. The note with it: 0.3 μM added once on culture day 1; MAP2 antibody culture day 4. The protocol: Hippocampal neurons were collected from the juvenile (Day 0 after birth) ICR mouse brain and cultured on a culture dish.
Each specimen was added once to the cells in the initial growth stage (on culture day 1); the resulting cells were immunostained with a MAP2 antibody three days later (on culture day 4), and the number of branches of the dendrite was quantified.
The measurement was performed by drawing 20 μm to 100 μm concentric circles (not shown) at an interval of 10 μm with a soma as a center and counting the number of dendrites crossing the circles.
A line graph of the number of dendrite crossings counted for each distance from the soma was drawn and a Student's t-test, paired (t-test, two tailed distribution) was carried out using an area under the line graph (Area under the Curve: AUC).
When the number of cases of a specimen was sufficient, the test was performed while eliminating the maximum and minimum values. The concentrations of the specimens to be added were each 0.3 μM.

Data set [2] in a line: lipophilicity, hydrophobicity and stability. The class given is physicochemical.
The subject of data set [3] is human glioma U251 cells (Sig1-R transfected cells). In words: intracellular ATP concentration in human glioma U251 cells. It counts as cell-based. The protocol: To cultured human glioma US251 cells (Sig1-R transfected cells) were added Specimens 1 and 2, respectively and intercomparison was performed between intracellular ATP concentration after addition and that without addition (Cont.). […] It is to be noted that fluorescence measurement was performed 6 hours after the administration of the specimens.

Data set [4] relates to mitochondrial Ca^2+ concentration in cerebral cortex and hippocampal neurons. Description: K+ depolarization-induced mitochondrial Ca2+ increase in brain slices after intraperitoneal administration. The class given is in vivo, C57BL/6N mice. As for the experimental part: One of adult C57BL/6N mice (from 10 to 17 weeks old, weight: from 28 to 31 g) was intraperitoneally administered with physiological saline (Control) and the other one with Specimen 3 (10 μg/kg). After 22 hours, a thin brain slice preparation of each mouse including the cortex and the hippocampus was made. Depolarization of a cellular membrane was caused by the addition of 80 mM KCl (80K) to an extracellular fluid and an increase in mitochondrial Ca^2+ concentration resulting therefrom was measured by a fluorescent method with Rhod-2 (Note 1). Positive participation of Specimen 3 to the ATP activity in mitochondria was indirectly verified (Note 3) by using, as an index, how the Ca^2+ concentration to be increased by 80K (Note 2) is suppressed by Specimen 3 in the brain slice.
(Note 1) Rhod-2: Ca^2+ fluorescent dye selectively incorporated in mitochondria
(Note 2) The depolarization of the neuronal membrane by 80K occurs due to both the flow of Ca^2+ from the outside to the inside of the cell and the release of Ca^2+ from an intracellular Ca store. The free Ca^2+ which has increased in the cell easily enters the mitochondria, an intracellular independent organ.
(Note 3) The free Ca^2+ which has increased in the neuronal cytoplasm due to 80K stimulation-induced depolarization speedily and immediately transmits into the mitochondria from the cytoplasm. A decrease in the mitochondrial free Ca^2+ concentration caused by the specimen occurs because the free Ca^2+ is scooped out of the cell by an outward Ca pump present in the neuron cytoplasm membrane or adsorption and fixing to a portion inside the mitochondria. Energy for it is supplied from ATP produced in the mitochondria. Based on the results thus obtained, intraperitoneally injected Specimen 3 passes from the blood to glia (astrocyte) cells and is then, incorporated in the mitochondria in the cerebral cortex or hippocampal neuron, by which ATP production in the mitochondria is activated and neurons are activated. […]
Fluorescence measurement results of a mitochondrial Ca^2+ increase are plotted along the ordinate.

In data set [5] the test system is cytoplasmic calcium concentration. Description: cytoplasmic calcium concentration in brain slice preparations exposed to 80K ACSF, 24 h after subcutaneous administration. It counts as in vivo, mouse (C57B/6NL). As for the experimental part: (§1) Formation of brain slice preparation and measurement of calcium concentration: Used was a whole brain half-cut preparation obtained by cutting a whole brain slice (300 μm) of a mouse (C57B/6NL), pretreated with Specimen 1 for 24 hours by subcutaneous administration, at a median line. […] The resulting preparation was placed in a chamber provided on a stage of an inverted fluorescence microscope (Olympus IX71), covered with a piece of black cotton, fixed with a platinum ring, and refluxed (70 ml/hr) in ACSF aerated with 95% O2 and 5% CO2. A fluorescent image of the preparation was acquired using a 4× objective lens and respective images of the hippocampal ventral part and cerebral cortex temporal region were obtained in one screen. For the measurement of a mitochondrial calcium concentration, a change in intensity of red fluorescence (>600 nm) caused by excitation light at 580 nm was determined and for the measurement of a cytoplasmic calcium concentration, a ratio of fluorescence (>500 nm) between excitation at 360 nm and that at 380 nm was determined. A hippocampal CA1 site and a cerebral cortex were used as two regions of interest (ROI).
(§2) In water was dissolved β-NMN to give a 10 mg/kg, 30 mg/kg, or 100 mg/kg solution; Specimen 1 was dissolved in an alcohol to give a solution of 1 mg/ml and then the resulting solution was diluted with water to give a 0.01 mg/kg, 0.1 mg/kg or 1.0 mg/kg solution; and they were subcutaneously administered to mice 24 hours before the formation of the preparation (0.1 ml/10 g).
(§3) In the present test, an operation of exposing the brain preparations formed from mice administered with two drugs having respective concentrations to isotonic 80 mM KCl-ACSF (artificial cerebrospinal fluid) for 5 minutes and then returning them in normal ACSF for 5 minutes was performed three successive times to give a severe calcium load to the preparations. Variations in cytoplasmic and mitochondrial calcium concentrations at that time were measured.

Data set [6] relates to mitochondrial calcium concentration. Description: mitochondrial calcium concentration in brain slice preparations exposed to 80K ACSF, 24 h after subcutaneous administration. The class given is in vivo, mouse (C57B/6NL). As for the experimental part: as §1, §2, §3
FIG. 31A to FIG. 32C show the quantification results of the effects of β-NMN and Specimen 1 (TND1128) at each concentration. In FIG. 31A to FIG. 32C, FIG. 31A and FIG. 32A show the results of calculating a mitochondrial calcium concentration, as AUC (Area under the curve), for 35 minutes from 5 minutes after starting of the experiment by administration to three times exposure to 80K-ACSF and 5-minute washing (refer to FIG. 37). FIG. 31B. FIG. 31C, FIG. 32B and FIG. 32C show the drug effects on 5-minute 80K administration and 5-minute subsequent washing (1st: from 5 minutes to 15 minutes, 2nd: from 15 minutes to 25 minutes, and 3rd: from 25 minutes to 35 minutes) in the cerebral cortex (CTX) and the hippocampus (CA1), respectively (refer to FIG. 37). A significant difference test was performed using Tukey's method.

Regarding `CC(C)CCCC(C)C1CCC2C3CCC4=Cc5c(cc6c(=O)n(C)c(=O)nc-6n5C)CC4(C)C3CCC12C` (centres unmarked) [Specimen 9], the “number of branches of hippocampal neuron dendrite (AUC of dendrite crossings, t-test vs control)” value in data set [1] was “an effect on dendrite elongation is recognized”.

As to `Cn1c(=O)nc2n(-c3ccccc3)c3c(cc-2c1=O)C[C@@]1(C)C(=C3)CC[C@H]2[C@@H]3CC[C@H](O)[C@@]3(C)CC[C@@H]21`, the melting point is 215 °C (dec.).

As to `O=c1nc2n(-c3ccc(Cl)cc3)c3[nH]c(=O)n(-c4ccccc4)c(=O)c3cc-2c(=O)n1-c1ccccc1` [Specimen 6], the “number of branches of hippocampal neuron dendrite (AUC of dendrite crossings, t-test vs control)” value in data set [1] is given as “an effect on dendrite elongation is recognized”.

For `Cc1ccc(-n2c3nc(=O)n(C)c(=O)c-3cc3c2C=C2CCC4C(CCC5(C)C(C(C)CCCC(C)C)CCC45)C2(C)C3)cc1C` (centres unmarked) [Specimen 10], the “number of branches of hippocampal neuron dendrite (AUC of dendrite crossings, t-test vs control)” value in data set [1] is “an effect on dendrite elongation is recognized”.

In the case of `Cc1ccc(-n2c3nc(=O)n(-c4ccccc4)c(=O)c-3cc3c2C=C2CCC4C(CCC5(C)C(C(C)CCCC(C)C)CCC45)C2(C)C3)cc1C` (centres unmarked) [Specimen 11], the “number of branches of hippocampal neuron dendrite (AUC of dendrite crossings, t-test vs control)” value in data set [1] is on record as “a statistically significant difference is recognized (p<0.05)”.

`C[C@]12CC[C@H]3[C@@H](CCC4=Cc5c(cc6c(=O)n(-c7ccccc7)c(=O)nc-6n5Cc5ccccc5)C[C@@]43C)[C@@H]1CC[C@@H]2O` displayed a melting point of 224 °C.

The molecule `CCCCn1c2nc(=O)n(-c3ccccc3)c(=O)c-2cc2c1C=C1CC[C@H]3[C@@H]4CC[C@H](O)[C@@]4(C)CC[C@@H]3[C@@]1(C)C2` came in with a melting point of 200 °C.

Turning to `Cn1c(=O)nc2n(Cc3ccccc3)c3c(cc-2c1=O)C[C@@]1(C)C(=C3)CC[C@H]2[C@@H]3CC[C@H](O)[C@@]3(C)CC[C@@H]21`, the melting point was 215 °C.

With `CCCCn1c2nc(=O)n(C)c(=O)c-2cc2ccccc21` [Specimen 2], the “lipophilicity compared with Specimen 1” value in data set [2] is “higher lipophilicity”. Also, the “effectiveness on ATP production compared between specimens” value in data set [3] (6 hours after administration) was “more effective than Specimen 1”. The “ATP production amount (intracellular ATP concentration vs without addition)” value in data set [3] (fluorescence measurement 6 hours after administration) is reported as “significantly increased the ATP production amount”.

Consider `CCCCn1c2nc(=O)n(C)c(=O)c-2cc2c1C=C1CCC3C(CCC4(C)C(O)CCC34)C1(C)C2` (stereo not drawn) [Specimen 3, 8′-n-Butyl-5′-deaza-17β-hydroxy-3′-methylandrost-2,4-dieno[2,3-g]pteridine-2′,4′(3′H,8′H)-dione], for which, in data set [4] (10 μg/kg i.p. pretreatment in vivo), the “decrease of 80K depolarization-induced increase in mitochondrial Ca2+ concentration, cortex and hippocampal neurons” value is “markedly and at the maximum”. In data set [4] (10 μg/kg i.p., slice made 22 hours after injection), the “variations of mitochondrial Ca2+ concentration on 80K extracellular fluid, cerebral cortex neurons” value was “suppression of the Ca^2+ concentration increase and a faster recovery from the Ca^2+ concentration increased by 80K depolarization can be observed”. Also, in data set [4] (i.p., 10 μg/kg and 10 mg/kg compared, n=3 slices), the “dose at which the maximum inhibitory effect on mitochondrial Ca2+ concentration increase is attained, hippocampal neurons” value came to 0.01 mg/kg.

On to `CCn1c2nc(=O)n(C)c(=O)c-2cc2c1C=C1CC[C@H]3[C@@H]4CC[C@H](O)[C@@]4(C)CC[C@@H]3[C@@]1(C)C2`, for which the melting point was 260 °C (dec.).

Turning to `Cn1c2nc(=O)n(C)c(=O)c-2cc2c1C=C1CCC3C(CCC4(C)C(O)CCC34)C1(C)C2` (centres unmarked) [Specimen 7], the “number of branches of hippocampal neuron dendrite (AUC of dendrite crossings, t-test vs control)” value in data set [1] is on record as “a statistically significant difference is recognized (p<0.05)”.

As for `CCn1c2nc(=O)n(C)c(=O)c-2cc2c(=O)n(C)c(=O)[nH]c21` [Specimen 5], the “number of branches of hippocampal neuron dendrite (AUC of dendrite crossings, t-test vs control)” value in data set [1] was “an effect on dendrite elongation is recognized”.

Regarding `NC(=O)c1ccc[n+]([C@@H]2O[C@H](COP(=O)([O-])O)[C@@H](O)[C@H]2O)c1` [β-NMN, Nicotinamide mononucleotide, reference compound], in data set [5] (s.c. 24 h pretreatment), the “effect on drastic increase in cytoplasmic Ca2+ concentration caused by 80K-ACSF” value was “no significant effect”. Further, the “quantified cytoplasmic Ca2+ (AUC), significant difference” value in data set [5] (s.c. 24 h pretreatment, all doses) is listed as “a significant difference was not observed at concentrations other than that of the group administered with 10 mg/kg of β-NMN”. Also, the “recovery of cytoplasmic calcium concentration variations at each 80K-ACSF administration” value in data set [5] (β-NMN 30 or 100 mg/kg, Specimen 1 0.01 to 1.0 mg/kg, s.c. 24 h) was “show similar recovery”. Moreover, the “physiological response of the preparations under 80K-ACSF stimulation (mitochondrial and cytoplasmic Ca2+ variations)” value in data set [6] (100 mg/kg β-NMN, 1 mg/kg Specimen 1) is “the preparations can maintain a markedly stable physiological response”. Further, in data set [6] (24 hours after administration), the “mitochondrial protective function / function stabilizing effect” value is recorded as “induces significant mitochondrial protective function”. Besides, the “mitochondrial calcium concentration as AUC, cerebral cortex (CTX) and hippocampus (CA1)” value in data set [6] (s.c. 24 h pretreatment, within the dose range studied, Tukey's method) is on record as “a dose response relationship”. Moreover, the “mitochondrial Ca2+ increase on three times 80K ACSF exposure (time course)” value in data set [6] (s.c. 24 h pretreatment, β-NMN 10, 30, 100 mg/kg, Specimen 1 0.01, 0.1, 1.0 mg/kg) is reported as “dose-dependently suppress a mitochondrial Ca^2+ increase”.

As for `CCn1c2nc(=O)n(-c3ccccc3)c(=O)c-2cc2c1C=C1CCC3C(CCC4(C)C(O)CCC34)C1(C)C2` (stereo not drawn) [Specimen 8, 5′-Deaza-8′-ethyl-17β-hydroxy-3′-phenylandrost-2,4-dieno[2,3-g]pteridine-2′,4′(3′H, 8′H)-dione], the “number of branches of hippocampal neuron dendrite (AUC of dendrite crossings, t-test vs control)” value in data set [1] is recorded as “an effect on dendrite elongation is recognized”.

As to `C[C@]12CC[C@H]3[C@@H](CCC4=Cc5c(cc6c(=O)n(-c7ccccc7)c(=O)nc-6n5-c5ccccc5)C[C@@]43C)[C@@H]1CC[C@@H]2O`, the melting point was found to be 257 °C.
